Measurements as given in ChEMBL document CHEMBL1177694, “Multivalent catanionic GalCer analogs derived from first generation dendrimeric phosphonic acids” (Bioorg Med Chem, 2010).

How the values were obtained:
[1] = tested on: Human immunodeficiency virus 1; experiment: Antiviral activity against HIV1 LAI infected in human CEM-SS cells assessed as inhibition of viral replication after 5 days by MTT assay; type: functional, organism-based; conditions: Human immunodeficiency virus 1, LAI, 120 h
[2] = Cytotoxicity against human CEM-SS cells after 5 days by MTT assay; type: cell-based
[3] = Therapeutic index, ratio of CC50 for human CEM-SS cells to IC50 for HIV1 LAI infected in human CEM-SS cells; type: cell-based; conditions: CEM-SS cells (uninfected and infected with HIV1 LAI), read-out: Ratio CC50/IC50

For CCCCCCCCCCC(C(=O)NCCc1ccc(OP(=S)(Oc2ccc(CCNC(=O)C(CCCCCCCCCC)P(=O)(O)O)cc2)N(C)/N=C/c2ccc(OP3(Oc4ccc(/C=N/N(C)P(=S)(Oc5ccc(CCNC(=O)C(CCCCCCCCCC)P(=O)(O)O)cc5)Oc5ccc(CCNC(=O)C(CCCCCCCCCC)P(=O)(O)O)cc5)cc4)=NP(Oc4ccc(/C=N/N(C)P(=S)(Oc5ccc(CCNC(=O)C(CCCCCCCCCC)P(=O)(O)O)cc5)Oc5ccc(CCNC(=O)C(CCCCCCCCCC)P(=O)(O)O)cc5)cc4)(Oc4ccc(/C=N/N(C)P(=S)(Oc5ccc(CCNC(=O)C(CCCCCCCCCC)P(=O)(O)O)cc5)Oc5ccc(CCNC(=O)C(CCCCCCCCCC)P(=O)(O)O)cc5)cc4)=NP(Oc4ccc(/C=N/N(C)P(=S)(Oc5ccc(CCNC(=O)C(CCCCCCCCCC)P(=O)(O)O)cc5)Oc5ccc(CCNC(=O)C(CCCCCCCCCC)P(=O)(O)O)cc5)cc4)(Oc4ccc(/C=N/N(C)P(=S)(Oc5ccc(CCNC(=O)C(CCCCCCCCCC)P(=O)(O)O)cc5)Oc5ccc(CCNC(=O)C(CCCCCCCCCC)P(=O)(O)O)cc5)cc4)=N3)cc2)cc1)P(=O)(O)O (centres undefined), the IC50 [1] was 16000 nM, the CC50 at 120 h [2] was > 100000 nM and the selectivity ratio [3] was > 6.

For CN(/N=C/c1ccc(OP2(Oc3ccc(/C=N/N(C)P(=S)(Oc4ccc(/C=C/P(=O)(O)O)cc4)Oc4ccc(/C=C/P(=O)(O)O)cc4)cc3)=NP(Oc3ccc(/C=N/N(C)P(=S)(Oc4ccc(/C=C/P(=O)(O)O)cc4)Oc4ccc(/C=C/P(=O)(O)O)cc4)cc3)(Oc3ccc(/C=N/N(C)P(=S)(Oc4ccc(/C=C/P(=O)(O)O)cc4)Oc4ccc(/C=C/P(=O)(O)O)cc4)cc3)=NP(Oc3ccc(/C=N/N(C)P(=S)(Oc4ccc(/C=C/P(=O)(O)O)cc4)Oc4ccc(/C=C/P(=O)(O)O)cc4)cc3)(Oc3ccc(/C=N/N(C)P(=S)(Oc4ccc(/C=C/P(=O)(O)O)cc4)Oc4ccc(/C=C/P(=O)(O)O)cc4)cc3)=N2)cc1)P(=S)(Oc1ccc(/C=C/P(=O)(O)O)cc1)Oc1ccc(/C=C/P(=O)(O)O)cc1, the IC50 [1] was 650 nM, the CC50 at 120 h [2] was > 100000 nM and the selectivity ratio [3] was > 153.

For CCCCCCCCCCCCCCCCNOC(CO)C(O)C(OC1OC(CO)C(O)C(O)C1O)C(O)CO.CCCCCCCCCCCCCCCCNOC(CO)C(O)C(OC1OC(CO)C(O)C(O)C1O)C(O)CO.CCCCCCCCCCCCCCCCNOC(CO)C(O)C(OC1OC(CO)C(O)C(O)C1O)C(O)CO.CCCCCCCCCCCCCCCCNOC(CO)C(O)C(OC1OC(CO)C(O)C(O)C1O)C(O)CO.CCCCCCCCCCCCCCCCNOC(CO)C(O)C(OC1OC(CO)C(O)C(O)C1O)C(O)CO.CCCCCCCCCCCCCCCCNOC(CO)C(O)C(OC1OC(CO)C(O)C(O)C1O)C(O)CO.CN(/N=C/c1ccc(OP2(Oc3ccc(/C=N/N(C)P(=S)(Oc4ccc(/C=C/P(=O)(O)O)cc4)Oc4ccc(/C=C/P(=O)(O)O)cc4)cc3)=NP(Oc3ccc(/C=N/N(C)P(=S)(Oc4ccc(/C=C/P(=O)(O)O)cc4)Oc4ccc(/C=C/P(=O)(O)O)cc4)cc3)(Oc3ccc(/C=N/N(C)P(=S)(Oc4ccc(/C=C/P(=O)(O)O)cc4)Oc4ccc(/C=C/P(=O)(O)O)cc4)cc3)=NP(Oc3ccc(/C=N/N(C)P(=S)(Oc4ccc(/C=C/P(=O)(O)O)cc4)Oc4ccc(/C=C/P(=O)(O)O)cc4)cc3)(Oc3ccc(/C=N/N(C)P(=S)(Oc4ccc(/C=C/P(=O)(O)O)cc4)Oc4ccc(/C=C/P(=O)(O)O)cc4)cc3)=N2)cc1)P(=S)(Oc1ccc(/C=C\P(=O)(O)O)cc1)Oc1ccc(/C=C/P(=O)(O)O)cc1 (centres undefined), the IC50 [1] was 250 nM, the CC50 at 120 h [2] was 1600 nM and the selectivity ratio [3] was 6.4.

In the case of CN(/N=C/c1ccc(OP2(Oc3ccc(/C=N/N(C)P(=S)(Oc4ccc(C(O)P(=O)(O)O)cc4)Oc4ccc(C(O)P(=O)(O)O)cc4)cc3)=NP(Oc3ccc(/C=N/N(C)P(=S)(Oc4ccc(C(O)P(=O)(O)O)cc4)Oc4ccc(C(O)P(=O)(O)O)cc4)cc3)(Oc3ccc(/C=N/N(C)P(=S)(Oc4ccc(C(O)P(=O)(O)O)cc4)Oc4ccc(C(O)P(=O)(O)O)cc4)cc3)=NP(Oc3ccc(/C=N/N(C)P(=S)(Oc4ccc(C(O)P(=O)(O)O)cc4)Oc4ccc(C(O)P(=O)(O)O)cc4)cc3)(Oc3ccc(/C=N/N(C)P(=S)(Oc4ccc(C(O)P(=O)(O)O)cc4)Oc4ccc(C(O)P(=O)(O)O)cc4)cc3)=N2)cc1)P(=S)(Oc1ccc(C(O)P(=O)(O)O)cc1)Oc1ccc(C(O)P(=O)(O)O)cc1 (centres undefined), the IC50 [1] is reported as 50000 nM, the CC50 at 120 h [2] is reported as > 100000 nM and the selectivity ratio [3] is reported as > 2.

For CN(/N=C/c1ccc(OP2(Oc3ccc(/C=N/N(c4ccc(CCN(CP(=O)(O)O)CP(=O)(O)O)cc4)P(O)(=S)Oc4ccc(CCN(CP(=O)(O)O)CP(=O)(O)O)cc4)cc3)=NP(Oc3ccc(/C=N/N(C)P(=S)(Oc4ccc(CCN(CP(=O)(O)O)CP(=O)(O)O)cc4)Oc4ccc(CCN(CP(=O)(O)O)CP(=O)(O)O)cc4)cc3)(Oc3ccc(/C=N/N(C)P(=S)(Oc4ccc(CCN(CP(=O)(O)O)CP(=O)(O)O)cc4)Oc4cccc(CCN(CP(=O)(O)O)CP(=O)(O)O)c4)cc3)=NP(Oc3ccc(/C=N/N(C)P(=S)(Oc4ccc(CCN(CP(=O)(O)O)CP(=O)(O)O)cc4)Oc4ccc(CCN(CP(=O)(O)O)CP(=O)(O)O)cc4)cc3)(Oc3ccc(/C=N/N(C)P(=S)(Oc4ccc(CCN(CP(=O)(O)O)CP(=O)(O)O)cc4)Oc4ccc(CCN(CP(=O)(O)O)CP(=O)(O)O)cc4)cc3)=N2)cc1)P(=S)(Oc1ccc(CCN(CP(=O)(O)O)CP(=O)(O)O)cc1)Oc1ccc(CCN(CP(=O)(O)O)CP(=O)(O)O)cc1 (centres undefined), the IC50 [1] was 20000 nM, the CC50 at 120 h [2] was > 100000 nM and the selectivity ratio [3] was > 5.

With CCCCCCCCCCCCCCCCNOC(CO)C(O)C(OC1OC(CO)C(O)C(O)C1O)C(O)CO.CCCCCCCCCCCCCCCCNOC(CO)C(O)C(OC1OC(CO)C(O)C(O)C1O)C(O)CO.CCCCCCCCCCCCCCCCNOC(CO)C(O)C(OC1OC(CO)C(O)C(O)C1O)C(O)CO.CCCCCCCCCCCCCCCCNOC(CO)C(O)C(OC1OC(CO)C(O)C(O)C1O)C(O)CO.CCCCCCCCCCCCCCCCNOC(CO)C(O)C(OC1OC(CO)C(O)C(O)C1O)C(O)CO.CCCCCCCCCCCCCCCCNOC(CO)C(O)C(OC1OC(CO)C(O)C(O)C1O)C(O)CO.CN(/N=C/c1ccc(OP2(Oc3ccc(/C=N/N(C)P(=S)(Oc4ccc(CCNC(=O)CP(=O)(O)O)cc4)Oc4ccc(CCNC(=O)CP(=O)(O)O)cc4)cc3)=NP(Oc3ccc(/C=N/N(C)P(=S)(Oc4ccc(CCNC(=O)CP(=O)(O)O)cc4)Oc4ccc(CCNC(=O)CP(=O)(O)O)cc4)cc3)(Oc3ccc(/C=N/N(C)P(=S)(Oc4ccc(CCNC(=O)CP(=O)(O)O)cc4)Oc4ccc(CCNC(=O)CP(=O)(O)O)cc4)cc3)=NP(Oc3ccc(/C=N/N(C)P(=S)(Oc4ccc(CCNC(=O)CP(=O)(O)O)cc4)Oc4ccc(CCNC(=O)CP(=O)(O)O)cc4)cc3)(Oc3ccc(/C=N/N(C)P(=S)(Oc4ccc(CCNC(=O)CP(=O)(O)O)cc4)Oc4ccc(CCNC(=O)CP(=O)(O)O)cc4)cc3)=N2)cc1)P(=S)(Oc1ccc(CCNC(=O)CP(=O)(O)O)cc1)Oc1ccc(CCNC(=O)CP(=O)(O)O)cc1 the IC50 [1] was 400 nM, the CC50 at 120 h [2] was 1900 nM and the selectivity ratio [3] was 4.8.

In the case of CN(/N=C/c1ccc(OP2(Oc3ccc(/C=N/N(C)P(=S)(Oc4ccc(CCNC(=O)CP(=O)(O)O)cc4)Oc4ccc(CCNC(=O)CP(=O)(O)O)cc4)cc3)=NP(Oc3ccc(/C=N/N(C)P(=S)(Oc4ccc(CCNC(=O)CP(=O)(O)O)cc4)Oc4ccc(CCNC(=O)CP(=O)(O)O)cc4)cc3)(Oc3ccc(/C=N/N(C)P(=S)(Oc4ccc(CCNC(=O)CP(=O)(O)O)cc4)Oc4ccc(CCNC(=O)CP(=O)(O)O)cc4)cc3)=NP(Oc3ccc(/C=N/N(C)P(=S)(Oc4ccc(CCNC(=O)CP(=O)(O)O)cc4)Oc4ccc(CCNC(=O)CP(=O)(O)O)cc4)cc3)(Oc3ccc(/C=N/N(C)P(=S)(Oc4ccc(CCNC(=O)CP(=O)(O)O)cc4)Oc4ccc(CCNC(=O)CP(=O)(O)O)cc4)cc3)=N2)cc1)P(=S)(Oc1ccc(CCNC(=O)CP(=O)(O)O)cc1)Oc1ccc(CCNC(=O)CP(=O)(O)O)cc1, the IC50 [1] is reported as 25000 nM, the CC50 at 120 h [2] is reported as > 100000 nM and the selectivity ratio [3] is reported as > 4.

Work on CCCCCCCCCCCCCCCCNOC(CO)C(O)C(OC1OC(CO)C(O)C(O)C1O)C(O)CO.CCCCCCCCCCCCCCCCNOC(CO)C(O)C(OC1OC(CO)C(O)C(O)C1O)C(O)CO.CCCCCCCCCCCCCCCCNOC(CO)C(O)C(OC1OC(CO)C(O)C(O)C1O)C(O)CO.CCCCCCCCCCCCCCCCNOC(CO)C(O)C(OC1OC(CO)C(O)C(O)C1O)C(O)CO.CCCCCCCCCCCCCCCCNOC(CO)C(O)C(OC1OC(CO)C(O)C(O)C1O)C(O)CO.CCCCCCCCCCCCCCCCNOC(CO)C(O)C(OC1OC(CO)C(O)C(O)C1O)C(O)CO.CN(/N=C/c1ccc(OP2(Oc3ccc(/C=N/N(C)P(=S)(Oc4ccc(C(O)P(=O)(O)O)cc4)Oc4ccc(C(O)P(=O)(O)O)cc4)cc3)=NP(Oc3ccc(/C=N/N(C)P(=S)(Oc4ccc(C(O)P(=O)(O)O)cc4)Oc4ccc(C(O)P(=O)(O)O)cc4)cc3)(Oc3ccc(/C=N/N(C)P(=S)(Oc4ccc(C(O)P(=O)(O)O)cc4)Oc4ccc(C(O)P(=O)(O)O)cc4)cc3)=NP(Oc3ccc(/C=N/N(C)P(=S)(Oc4ccc(C(O)P(=O)(O)O)cc4)Oc4ccc(C(O)P(=O)(O)O)cc4)cc3)(Oc3ccc(/C=N/N(C)P(=S)(Oc4ccc(C(O)P(=O)(O)O)cc4)Oc4ccc(C(O)P(=O)(O)O)cc4)cc3)=N2)cc1)P(=S)(Oc1ccc(C(O)P(=O)(O)O)cc1)Oc1ccc(C(O)P(=O)(O)O)cc1 (centres undefined) yielded an IC50 [1] of 210 nM, a CC50 at 120 h [2] of 1200 nM and a selectivity ratio [3] of 4.
